# Reference: ChEMBL document CHEMBL1821675, “The selective P-TEFb inhibitor CAN508 targets angiogenesis” (Eur J Med Chem, 2011)
# Activity calls are given as the source filed them. The rule behind the calls is not given here.
# How the values were obtained:
# [1] = biological target: Serine/threonine-protein kinase MARK2 (Homo sapiens) (UniProt Q7KZI7); assay: Inhibition of MARK2 assessed as residual activity at 10 uM by radioactivity assay in presence of 20 uM ATP
# [2] = tested on: UO-31; assay: Cytotoxicity against human UO31 cells; type: functional
# [3] = biological target: Tyrosine-protein kinase CSK (Homo sapiens) (UniProt P41240); assay: Inhibition of CSK assessed as residual activity at 10 uM by radioactivity assay in presence of 20 uM ATP
# [4] = biological target: Glycogen synthase kinase-3 beta (Homo sapiens) (UniProt P49841); assay: Inhibition of GSK3b assessed as residual activity at 10 uM by radioactivity assay in presence of 5 uM ATP
# [5] = biological target: Receptor-interacting serine/threonine-protein kinase 2 (Homo sapiens) (UniProt O43353); assay: Inhibition of RIPK2 assessed as residual activity at 10 uM by radioactivity assay in presence of 20 uM ATP
# [6] = tested on: HT-29; assay: Cytotoxicity against human HT-29 cells; type: functional
# [7] = biological target: Receptor tyrosine-protein kinase erbB-4 (Homo sapiens) (UniProt Q15303); assay: Inhibition of HER4 assessed as residual activity at 10 uM by radioactivity assay in presence of 5 uM ATP
# [8] = biological target: Mitogen-activated protein kinase 12 (Homo sapiens) (UniProt P53778); assay: Inhibition of p38-gamma MAPK assessed as residual activity at 10 uM by radioactivity assay in presence of 5 uM ATP
# [9] = biological target: Mitogen-activated protein kinase 13 (Homo sapiens) (UniProt O15264); assay: Inhibition of p38delta MAPK assessed as residual activity at 10 uM by radioactivity assay in presence of 5 uM ATP
# [10] = tested on: MOLT-4; assay: Cytotoxicity against human MOLT4 cells; type: functional
# [11] = biological target: MAP kinase-interacting serine/threonine-protein kinase 1 (Homo sapiens) (UniProt Q9BUB5); assay: Inhibition of MNK1 assessed as residual activity at 10 uM by radioactivity assay in presence of 50 uM ATP
# [12] = tested on: LOX IMVI; assay: Cytotoxicity against human LOXIMVI cells; type: functional
# [13] = tested on: SK-MEL-5; assay: Cytotoxicity against human SK-MEL-5 cells; type: functional
# [14] = tested on: SNB-19; assay: Cytotoxicity against human SNB19 cells; type: functional
# [15] = tested on: HL-60(TB); assay: Cytotoxicity against human HL-60(TB) cells; type: functional
# [16] = Inhibition of TNF-alpha-induced Nuclear factor-kappa-B-mediated ICAM-1 expression in human HMEC1 cells after 24 hrs by FACS analysis; type: cell-based; details: HMEC-1, 24 h
# [17] = biological target: Casein kinase II subunit alpha (Homo sapiens) (UniProt P68400); assay: Inhibition of CK2alpha assessed as residual activity at 10 uM by radioactivity assay in presence of 20 uM ATP
# [18] = biological target: High affinity nerve growth factor receptor (Homo sapiens) (UniProt P04629); assay: Inhibition of TrkA assessed as residual activity at 10 uM by radioactivity assay in presence of 20 uM ATP
# [19] = biological target: Ribosomal protein S6 kinase alpha-3 (Homo sapiens) (UniProt P51812); assay: Inhibition of RSK2 assessed as residual activity at 10 uM by radioactivity assay in presence of 50 uM ATP
# [20] = biological target: Serine/threonine-protein kinase Sgk1 (Homo sapiens) (UniProt O00141); assay: Inhibition of SGK1 assessed as residual activity at 10 uM by radioactivity assay in presence of 20 uM ATP
# [21] = tested on: PC-3; assay: Cytotoxicity against human PC3 cells; type: functional
# [22] = biological target: Serine/threonine-protein kinase Nek6 (Homo sapiens) (UniProt Q9HC98); assay: Inhibition of NEK6 assessed as residual activity at 10 uM by radioactivity assay in presence of 50 uM ATP
# [23] = biological target: Serine/threonine-protein kinase Nek2 (Homo sapiens) (UniProt P51955); assay: Inhibition of NEK2a assessed as residual activity at 10 uM by radioactivity assay in presence of 50 uM ATP
# [24] = biological target: Fibroblast growth factor receptor 1 (Homo sapiens) (UniProt P11362); assay: Inhibition of FGF-R1 assessed as residual activity at 10 uM by radioactivity assay in presence of 20 uM ATP
# [25] = biological target: Dual specificity mitogen-activated protein kinase kinase 1 (Homo sapiens) (UniProt Q02750); assay: Inhibition of MKK1 assessed as residual activity at 10 uM by radioactivity assay in presence of 5 uM ATP
# [26] = tested on: OVCAR-3; assay: Cytotoxicity against human OVCAR3 cells; type: functional
# [27] = biological target: MAP kinase-activated protein kinase 3 (Homo sapiens) (UniProt Q16644); assay: Inhibition of MAPKAP-K3 assessed as residual activity at 10 uM by radioactivity assay in presence of 20 uM ATP
# [28] = biological target: Insulin receptor (Homo sapiens) (UniProt P06213); assay: Inhibition of IR assessed as residual activity at 10 uM by radioactivity assay in presence of 20 uM ATP
# [29] = biological target: Mitogen-activated protein kinase 9 (Homo sapiens) (UniProt P45984); assay: Inhibition of JNK2alpha2 assessed as residual activity at 10 uM by radioactivity assay in presence of 20 uM ATP
# [30] = biological target: Ribosomal protein S6 kinase alpha-5 (Homo sapiens) (UniProt O75582); assay: Inhibition of MSK1 assessed as residual activity at 10 uM by radioactivity assay in presence of 20 uM ATP
# [31] = tested on: MCF7; assay: Decrease in VEGF expression in human MCF7 cells at >10 uM after 24 hrs by sandwich ELISA; type: functional, cell-based
# [32] = tested on: BT-549; assay: Cytotoxicity against human BT549 cells; type: functional
# [33] = biological target: Serine/threonine-protein kinase PAK 5 (Homo sapiens) (UniProt Q9P286); assay: Inhibition of PAK5 assessed as residual activity at 10 uM by radioactivity assay in presence of 20 uM ATP
# [34] = tested on: NCI/ADR-RES; assay: Cytotoxicity against human NCI/ADR-RES cells; type: functional
# [35] = biological target: RAC-beta serine/threonine-protein kinase (Homo sapiens) (UniProt P31751); assay: Inhibition of PKBbeta assessed as residual activity at 10 uM by radioactivity assay in presence of 50 uM ATP
# [36] = biological target: Mitogen-activated protein kinase 14 (Homo sapiens) (UniProt Q16539); assay: Inhibition of p38alpha MAPK assessed as residual activity at 10 uM by radioactivity assay in presence of 50 uM ATP
# [37] = biological target: Maternal embryonic leucine zipper kinase (Homo sapiens) (UniProt Q14680); assay: Inhibition of MELK assessed as residual activity at 10 uM by radioactivity assay in presence of 50 uM ATP
# [38] = Antiangiogenic activity in VEGF-stimulated HMEC1 assessed as reduction in total length of tube at 20 uM after 16 hrs by photographic analysis; type: functional, Homo sapiens, HMEC-1; parameters: scale not given: the % may be the effect or the level left
# [39] = biological target: Tyrosine-protein kinase Lck (Homo sapiens) (UniProt P06239); assay: Inhibition of Lck assessed as residual activity at 10 uM by radioactivity assay in presence of 50 uM ATP
# Sequence of MAP kinase-activated protein kinase 3 (Homo sapiens) (Q16644 whole entry, looked up): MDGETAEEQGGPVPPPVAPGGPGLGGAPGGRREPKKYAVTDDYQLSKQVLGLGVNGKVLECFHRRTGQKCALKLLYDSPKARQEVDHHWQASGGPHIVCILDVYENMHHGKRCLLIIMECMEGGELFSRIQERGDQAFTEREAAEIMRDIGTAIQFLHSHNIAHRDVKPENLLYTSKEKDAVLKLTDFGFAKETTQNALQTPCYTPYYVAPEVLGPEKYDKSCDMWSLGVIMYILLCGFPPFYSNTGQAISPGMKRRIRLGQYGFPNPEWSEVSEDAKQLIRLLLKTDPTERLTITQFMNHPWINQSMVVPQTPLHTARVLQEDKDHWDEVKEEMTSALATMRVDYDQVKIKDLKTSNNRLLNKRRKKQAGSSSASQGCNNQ
# Sequence of Receptor-interacting serine/threonine-protein kinase 2 (Homo sapiens) (O43353 whole entry): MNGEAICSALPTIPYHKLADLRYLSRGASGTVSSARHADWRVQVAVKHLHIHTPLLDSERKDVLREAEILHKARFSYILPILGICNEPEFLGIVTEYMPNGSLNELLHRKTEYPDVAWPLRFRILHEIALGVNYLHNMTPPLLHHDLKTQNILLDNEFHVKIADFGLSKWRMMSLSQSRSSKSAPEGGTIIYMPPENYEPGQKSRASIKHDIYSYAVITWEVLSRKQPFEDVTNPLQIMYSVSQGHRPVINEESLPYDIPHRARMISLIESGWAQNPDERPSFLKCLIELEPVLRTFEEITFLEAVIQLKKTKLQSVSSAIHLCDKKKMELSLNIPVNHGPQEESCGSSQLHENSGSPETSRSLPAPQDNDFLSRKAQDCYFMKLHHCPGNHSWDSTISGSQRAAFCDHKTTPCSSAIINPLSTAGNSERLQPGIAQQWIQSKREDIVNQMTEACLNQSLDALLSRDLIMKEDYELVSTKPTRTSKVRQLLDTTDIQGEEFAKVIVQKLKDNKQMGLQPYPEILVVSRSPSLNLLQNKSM
# Sequence of Mitogen-activated protein kinase 13 (Homo sapiens) (O15264 whole entry): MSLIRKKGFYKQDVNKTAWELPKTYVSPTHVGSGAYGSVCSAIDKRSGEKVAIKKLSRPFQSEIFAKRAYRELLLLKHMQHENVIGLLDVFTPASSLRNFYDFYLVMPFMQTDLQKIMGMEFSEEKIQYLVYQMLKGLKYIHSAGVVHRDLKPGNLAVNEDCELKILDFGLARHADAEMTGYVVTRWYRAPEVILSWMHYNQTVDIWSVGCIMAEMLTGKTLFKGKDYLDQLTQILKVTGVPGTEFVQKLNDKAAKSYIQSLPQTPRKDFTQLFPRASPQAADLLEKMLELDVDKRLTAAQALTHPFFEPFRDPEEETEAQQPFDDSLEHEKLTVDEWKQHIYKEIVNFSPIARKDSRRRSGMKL
# Sequence of Insulin receptor (Homo sapiens) (P06213 28-758 limits assumed): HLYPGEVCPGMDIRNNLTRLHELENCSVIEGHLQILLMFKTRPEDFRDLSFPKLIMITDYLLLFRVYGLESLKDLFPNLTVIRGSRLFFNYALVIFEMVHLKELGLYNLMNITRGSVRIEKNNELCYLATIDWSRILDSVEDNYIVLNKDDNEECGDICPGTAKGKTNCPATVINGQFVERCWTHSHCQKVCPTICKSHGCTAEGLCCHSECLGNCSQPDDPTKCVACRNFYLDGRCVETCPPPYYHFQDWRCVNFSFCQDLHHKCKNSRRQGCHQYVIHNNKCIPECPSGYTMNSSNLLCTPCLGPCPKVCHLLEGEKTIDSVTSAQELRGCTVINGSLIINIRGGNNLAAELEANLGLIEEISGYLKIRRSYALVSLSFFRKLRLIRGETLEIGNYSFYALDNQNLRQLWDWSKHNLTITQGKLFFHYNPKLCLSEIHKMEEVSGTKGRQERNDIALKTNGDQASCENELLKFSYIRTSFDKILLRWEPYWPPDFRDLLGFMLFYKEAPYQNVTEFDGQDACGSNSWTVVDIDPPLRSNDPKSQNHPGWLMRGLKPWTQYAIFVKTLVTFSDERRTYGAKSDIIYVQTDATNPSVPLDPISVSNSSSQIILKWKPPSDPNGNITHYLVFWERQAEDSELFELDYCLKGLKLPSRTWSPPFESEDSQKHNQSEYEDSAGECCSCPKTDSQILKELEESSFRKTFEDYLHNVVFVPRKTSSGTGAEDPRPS
# Sequence of Insulin receptor (Homo sapiens) (P06213 763-1382 limits assumed): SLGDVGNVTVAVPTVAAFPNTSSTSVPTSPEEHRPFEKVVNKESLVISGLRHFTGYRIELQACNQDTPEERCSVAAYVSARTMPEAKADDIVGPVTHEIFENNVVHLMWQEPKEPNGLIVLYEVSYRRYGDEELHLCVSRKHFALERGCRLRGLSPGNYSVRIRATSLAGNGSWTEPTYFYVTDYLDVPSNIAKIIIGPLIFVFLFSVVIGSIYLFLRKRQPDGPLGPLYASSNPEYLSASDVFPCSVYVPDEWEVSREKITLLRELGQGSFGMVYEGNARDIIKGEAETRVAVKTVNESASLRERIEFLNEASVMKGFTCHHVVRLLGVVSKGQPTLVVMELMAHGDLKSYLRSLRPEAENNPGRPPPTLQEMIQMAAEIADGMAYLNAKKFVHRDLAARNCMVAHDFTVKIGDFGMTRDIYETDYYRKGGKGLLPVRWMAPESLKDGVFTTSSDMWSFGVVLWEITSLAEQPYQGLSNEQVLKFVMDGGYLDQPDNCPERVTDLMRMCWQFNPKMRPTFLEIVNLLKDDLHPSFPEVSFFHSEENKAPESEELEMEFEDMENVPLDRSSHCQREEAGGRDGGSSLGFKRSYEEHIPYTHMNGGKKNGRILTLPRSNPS
# Sequence of RAC-beta serine/threonine-protein kinase (Homo sapiens) (P31751 whole entry): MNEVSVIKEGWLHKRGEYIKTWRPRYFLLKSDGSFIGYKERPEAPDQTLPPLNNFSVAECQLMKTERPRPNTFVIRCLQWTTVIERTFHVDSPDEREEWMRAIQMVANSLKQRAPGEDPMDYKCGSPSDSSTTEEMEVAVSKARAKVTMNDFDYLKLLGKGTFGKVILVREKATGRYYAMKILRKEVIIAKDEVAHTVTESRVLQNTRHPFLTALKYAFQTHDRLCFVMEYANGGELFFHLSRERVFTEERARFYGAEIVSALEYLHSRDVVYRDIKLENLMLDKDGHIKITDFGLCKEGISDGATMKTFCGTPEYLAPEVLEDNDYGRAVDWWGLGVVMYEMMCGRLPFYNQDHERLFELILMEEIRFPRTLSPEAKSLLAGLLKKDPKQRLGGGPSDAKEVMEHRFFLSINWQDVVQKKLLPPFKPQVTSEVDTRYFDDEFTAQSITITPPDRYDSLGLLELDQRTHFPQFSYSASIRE
# Sequence of Maternal embryonic leucine zipper kinase (Homo sapiens) (Q14680 whole entry, looked up): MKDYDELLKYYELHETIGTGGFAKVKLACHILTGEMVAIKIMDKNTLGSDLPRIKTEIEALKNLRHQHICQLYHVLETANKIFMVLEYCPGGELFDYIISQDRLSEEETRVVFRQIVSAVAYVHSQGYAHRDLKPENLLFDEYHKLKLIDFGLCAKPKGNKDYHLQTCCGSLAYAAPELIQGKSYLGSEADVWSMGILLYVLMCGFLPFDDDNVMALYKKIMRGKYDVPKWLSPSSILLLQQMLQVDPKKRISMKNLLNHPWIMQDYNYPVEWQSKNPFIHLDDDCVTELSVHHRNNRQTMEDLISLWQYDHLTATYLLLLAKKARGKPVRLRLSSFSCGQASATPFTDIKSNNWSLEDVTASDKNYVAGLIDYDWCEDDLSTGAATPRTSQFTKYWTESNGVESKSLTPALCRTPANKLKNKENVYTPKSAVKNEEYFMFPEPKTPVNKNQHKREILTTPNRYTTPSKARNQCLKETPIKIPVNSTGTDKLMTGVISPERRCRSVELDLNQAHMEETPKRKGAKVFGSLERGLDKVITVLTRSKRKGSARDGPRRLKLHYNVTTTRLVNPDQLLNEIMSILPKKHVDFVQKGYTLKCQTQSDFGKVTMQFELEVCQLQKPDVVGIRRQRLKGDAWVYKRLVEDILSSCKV
# Sequence of MAP kinase-interacting serine/threonine-protein kinase 1 (Homo sapiens) (Q9BUB5 whole entry, looked up): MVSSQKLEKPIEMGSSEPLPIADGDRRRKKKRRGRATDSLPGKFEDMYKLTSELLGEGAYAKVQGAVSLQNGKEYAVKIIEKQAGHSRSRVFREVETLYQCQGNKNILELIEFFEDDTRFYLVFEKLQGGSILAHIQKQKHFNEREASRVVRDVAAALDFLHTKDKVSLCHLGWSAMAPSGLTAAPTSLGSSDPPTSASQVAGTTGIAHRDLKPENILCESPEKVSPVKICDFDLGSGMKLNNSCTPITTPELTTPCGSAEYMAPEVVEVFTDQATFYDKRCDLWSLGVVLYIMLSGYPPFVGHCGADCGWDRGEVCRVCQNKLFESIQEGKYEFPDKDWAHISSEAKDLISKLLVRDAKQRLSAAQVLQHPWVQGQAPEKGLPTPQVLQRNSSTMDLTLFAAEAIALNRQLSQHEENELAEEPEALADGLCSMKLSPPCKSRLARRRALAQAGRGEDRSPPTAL
# Sequence of Serine/threonine-protein kinase MARK2 (Homo sapiens) (Q7KZI7 whole entry): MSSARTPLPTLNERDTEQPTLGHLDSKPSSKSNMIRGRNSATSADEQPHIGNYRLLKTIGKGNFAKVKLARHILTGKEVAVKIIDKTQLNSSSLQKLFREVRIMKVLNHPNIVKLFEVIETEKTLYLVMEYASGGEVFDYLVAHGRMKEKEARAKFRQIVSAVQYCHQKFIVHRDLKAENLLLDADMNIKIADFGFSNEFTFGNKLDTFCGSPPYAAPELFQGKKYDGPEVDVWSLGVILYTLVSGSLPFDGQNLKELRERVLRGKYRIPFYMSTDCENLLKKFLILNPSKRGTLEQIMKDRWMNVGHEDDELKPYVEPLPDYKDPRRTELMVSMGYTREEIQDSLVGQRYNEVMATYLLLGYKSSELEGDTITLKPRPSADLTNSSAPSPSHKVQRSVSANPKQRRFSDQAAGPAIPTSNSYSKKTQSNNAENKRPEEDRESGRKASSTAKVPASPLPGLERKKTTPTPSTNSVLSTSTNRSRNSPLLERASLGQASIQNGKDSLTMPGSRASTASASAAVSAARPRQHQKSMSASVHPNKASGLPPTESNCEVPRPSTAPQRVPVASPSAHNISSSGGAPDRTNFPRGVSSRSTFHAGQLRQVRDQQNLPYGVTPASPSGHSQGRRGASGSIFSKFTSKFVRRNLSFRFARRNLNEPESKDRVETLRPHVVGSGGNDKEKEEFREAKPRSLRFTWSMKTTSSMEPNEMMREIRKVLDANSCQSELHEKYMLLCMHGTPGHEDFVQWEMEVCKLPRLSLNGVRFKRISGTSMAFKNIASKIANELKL
smiles,measurement,setting,value
Nc1n[nH]c(N)c1/N=N/c1ccc(O)cc1,Activity,[1],79%
same,GI50,[2],13.7 µM
same,Activity,[3],105%
same,Activity,[4],64%
same,Activity,[5],57%
same,GI50,[6],29.7 µM
same,Activity,[7],59%
same,Activity,[8],50%
same,Activity,[9],77%
same,GI50,[10],13.5 µM
same,Activity,[11],37%
same,GI50,[12],4.1 µM
same,GI50,[13],13.9 µM
same,GI50,[14],29.9 µM
same,GI50,[15],6.4 µM
same,IC50,[16],20 µM
same,Activity,[17],48%
same,Activity,[18],98%
same,Activity,[19],96%
same,Activity,[20],94%
same,GI50,[21],20.3 µM
same,Activity,[22],114%
same,Activity,[23],106%
same,Activity,[24],68%
same,Activity,[25],60%
same,GI50,[26],22.8 µM
same,Activity,[27],89%
same,Activity,[28],78%
same,Activity,[29],102%
same,Activity,[30],88%
same,Activity,[31],Active
same,GI50,[32],14 µM
same,Activity,[33],88%
same,GI50,[34],22.5 µM
same,Activity,[35],56%
same,Activity,[36],101%
same,Activity,[37],46%
same,Activity,[38],20%
same,Activity,[39],113%
